From US5177069A, “Naphthysulfonylalkanoic acid compounds and pharmaceutical compositions thereof” (Kissei Pharmaceutical Co., Ltd., priority 1989, dated 1993)

Tests used:
CCK-receptor = target: T1, CCK-receptor (Rattus norvegicus, UniProt P30551); assay: CCK-receptor binding assay in pancreas (125I-CCK-8, pancreatic plasma membranes); set-up: species or system Male Wistar rats; conditions: 30 pM 125I-CCK-8, rat pancreatic plasma membranes, 37° C., 30 minutes; inhibition of specific binding
T1 construct: Pancreatic plasma membranes were prepared by the method of Chang et al; from tissue; host or cells: pancreas of male Wistar rats (pancreatic plasma membranes)
T1 sequence (P30551 1-444): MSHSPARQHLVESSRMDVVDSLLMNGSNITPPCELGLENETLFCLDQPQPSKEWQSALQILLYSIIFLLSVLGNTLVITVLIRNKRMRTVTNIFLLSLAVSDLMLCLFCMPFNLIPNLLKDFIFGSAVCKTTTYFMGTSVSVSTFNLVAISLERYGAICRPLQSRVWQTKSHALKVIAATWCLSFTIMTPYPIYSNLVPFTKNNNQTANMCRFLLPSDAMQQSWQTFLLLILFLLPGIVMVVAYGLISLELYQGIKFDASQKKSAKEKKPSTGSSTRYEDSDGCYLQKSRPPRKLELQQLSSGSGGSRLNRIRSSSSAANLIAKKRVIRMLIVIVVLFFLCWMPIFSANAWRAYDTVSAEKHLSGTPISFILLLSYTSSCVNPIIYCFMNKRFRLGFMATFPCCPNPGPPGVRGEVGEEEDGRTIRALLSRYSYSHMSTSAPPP
Method: CCK-receptor binding assay in pancreas
Pancreatic plasma membranes were prepared by the method of Chang et al. (Molecular Pharmacology, Vol. 30, p. 212-, 1986). Male Wistar rats were sacrificed by decapitation and the pancreas was removed. The pancreas was dissected free from adipose tissue and minced in 50 volumes ice-cold Tris-HCl buffer (50 mM, pH 7.4 at 37° C.). Homogenization was performed using ultra disperser and the homogenate was centrifuged at 50,000×g for 10 minutes. The pellet was washed by resuspension in the same volume of fresh Tris-HCl buffer and again centrifuged as above. The final pellet was suspended in assay buffer (50 mM Tris-HCl, 5 mM MgCl2, 5 mM dithiothreitol, 2 mg/ml of bovine serum albumin, and 0.14 mg/ml of bacitracin), and used as receptor sources for binding assay.
Thirty pM ^125 I-CCK-8 (final concentration), test drug or vehicle (for total binding) or 10^-6 M CCK-8 (for nonspecific binding) were added to the assay medium containing pancreatic plasma membranes (0.5 mg of original wet weight/ml). After incubation at 37° C. for 30 minutes, the assay medium was filtrated under reduced pressure through glass fiber filter and washed four times with 4 ml of ice-cold Tris-HCl buffer. The radioactivity trapped on the filter was counted by γ-counter (Packard 5650).
Specific binding was defined as the radioactivity bound after subtracting nonspecific binding determined in the presense of 10^-6 M unlabeled CCK-8. IC50 value was calculated from inhibition percentage of specific binding by each test drug.

isolated gallbladder = assay: CCK-antagonism in isolated gallbladder (contraction induced by CCK-8); type: cell-based, male Hartley guinea-pig; conditions: Cavia porcellus; guinea-pig gallbladder strips, Krebs solution 37° C.; contraction induced by 10^-8 M CCK-8
Method: CCK-antagonism in isolated gallbladder
Gallbladder strips isolated from male Hartley guinea-pig were prepared and suspended in Magnus bath filled with Krebs solution (1 g of initial tension). The solution kept at 37° C. was aerated with a mixture of 95% O2 and 5% CO2. The isometric contraction of strips was recorded through a force-displacement transducer. Antagonism by test drugs against gallbladder contraction induced by 10^-8 M CCK-8 was examined and IC50 value was calculated.

amylase secretion = assay: Effect on amylase secretion in rats (stimulated by CCK-8); type: in vivo, Male Wistar rats; conditions: Rattus norvegicus; intraduodenal, 30 minutes before subcutaneous CCK-8 (10 μg/kg); urethane-anesthetized rats
Method: Effect on amylase secretion in rats
Male Wistar rats were anesthetized with urethane (1.5 g/kg, S.C.), and tracheal cannula was inserted. Biliopancreatic juice was collected from the cannula which had been inserted into the common bile duct. Thirty minutes after intraduodenal administration of test drug, amylase secretion was stimulated by subcutaneous injection of CCK-8 (10 μg/kg). Amylase concentration in the sample collected every 30 minutes during experiment was assayed using Amylase B Test (Wako), and ED50 value was calculated.

## CCCCCN(CCCOC)C(=O)C(CCC(=O)OC)CS(=O)(=O)c1ccc2ccccc2c1 (racemic) [Compound No. 3, methyl 4-[N-(3-methoxypropyl)-N-pentylcarbamoyl]-5-(2-naphthylsulfonyl)pentanoate]
CCK-receptor
  IC50: 2400 nM

## CCCCCN(CC(=O)OCC)C(=O)C(CCC(=O)OCc1ccccc1)CS(=O)(=O)c1ccc2ccccc2c1 (racemic) [compound 6, benzyl 4-(N-ethoxycarbonylmethyl-N-pentylcarbamoyl)-5-(2-naphthylsulfonyl)pentanoate]
CCK-receptor
  IC50: 1700 nM

## CCCCCN(CC(=O)OCC)C(=O)C(CCC(=O)OC)CS(=O)(=O)c1ccc2ccccc2c1 (racemic) [compound 7, methyl 4-(N-ethoxycarbonylmethyl-N-pentylcarbamoyl)-5-(2-naphthylsulfonyl)pentanoate]
CCK-receptor
  IC50: 1700 nM

## CCCCCN(CCCOC)C(=O)C(CCC(=O)O)CS(=O)(=O)c1ccc2ccccc2c1 (single isomer, unassigned) [compound 23]
CCK-receptor
  IC50: 3300 nM

## CCCCCN(CC(=O)OC(C)(C)C)C(=O)C(CCC(=O)O)CS(=O)(=O)c1ccc2ccccc2c1 (single isomer, unassigned) [compound 26]
CCK-receptor
  IC50: 25 nM

## CCCCCN(CCCOC)C(=O)C(CCC(=O)O)CS(=O)(=O)c1ccc2ccccc2c1 (single isomer, unassigned; (-)) [compound 22, (-)-4-[N-(3-methoxypropyl)-N-pentylcarbamoyl]-5-(2-naphthylsulfonyl)pentanoic acid]
Isolated gallbladder
  IC50: 2800 nM
CCK-receptor
  IC50: 120 nM

## CCCCCN(CC(=O)O)C(=O)C(CCC(=O)OC)CS(=O)(=O)c1ccc2ccccc2c1 (stereo not shown) [Compound No. 15, N-[2-(2-Methoxycarbonylethyl)-3-(2-naphthylsulfonyl)propionyl]-N-pentylglycine]
CCK-receptor
  IC50: 7300 nM

## CCCCCN(CCCOC)C(=O)C(CCC(=O)O)CS(=O)(=O)c1ccc2ccccc2c1 (stereo not shown) [Compound No. 18, 4-[N-(3-Methoxypropyl)-N-pentylcarbamoyl]-5-(2-naphthylsulfonyl)pentanoic acid]
Amylase secretion
  ED50: 15.7 mg/kg
Isolated gallbladder
  IC50: 6800 nM
CCK-receptor
  IC50: 340 nM

## CCCCCN(CC(=O)OCC)C(=O)C(CCC(=O)O)CS(=O)(=O)c1ccc2ccccc2c1 (stereo not shown) [Compound No. 19, 4-(N-Ethoxycarbonylmethyl-N-pentylcarbamoyl)-5-(2-naphthylsulfonyl)pentanoic acid]
Amylase secretion
  ED50: 33.3 mg/kg
Isolated gallbladder
  IC50: 2100 nM
CCK-receptor
  IC50: 320 nM

## COC(=O)CCC(CS(=O)(=O)c1ccc2ccccc2c1)C(=O)N(CCC1CCCCC1)CCC1CCCCC1 (stereo not shown) [Compound No. 34, Methyl 4-[N,N-bis(2-cyclohexylethyl)carbamoyl]-5-(2-naphthylsulfonyl)pentanoate]
CCK-receptor
  IC50: 1700 nM

## O=C(O)CCC(CS(=O)(=O)c1ccc2ccccc2c1)C(=O)N(CCC1CCCCC1)CCC1CCCCC1 (stereo not shown) [Compound No. 39, 4-[N,N-Bis(2-cyclohexylethyl)carbamoyl]-5-(2-naphthylsulfonyl)pentanoic acid]
CCK-receptor
  IC50: 1800 nM

## CCCCCN(CCOC(C)=O)C(=O)C(CCC(=O)O)CS(=O)(=O)c1ccc2ccccc2c1 (stereo not shown) [Compound No. 50, 4-[N-(2-Acetoxyethyl)-N-pentylcarbamoyl]-5-(2-naphtylsulfonyl)pentanoic acid]
CCK-receptor
  IC50: 200 nM

## CCCCCN(CC(=O)N1CCCCC1)C(=O)C(CCC(=O)O)CS(=O)(=O)c1ccc2ccccc2c1 (stereo not shown) [Compound No. 51, 5-(2-Naphthylsulfonyl)-4-(N-pentyl-N-piperidinocarbonylmethylcarbamoyl)pentanoic acid]
CCK-receptor
  IC50: 400 nM

## CCCCCN(CCCCC)C(=O)C(CCC(=O)O)CS(=O)(=O)c1ccc2ccccc2c1 (stereo not shown) [compound 20]
Amylase secretion
  ED50: 9.6 mg/kg
Isolated gallbladder
  IC50: 2600 nM
CCK-receptor
  IC50: 29 nM

## CCCCCN(CCC(=O)OCC)C(=O)C(CCC(=O)O)CS(=O)(=O)c1ccc2ccccc2c1 (stereo not shown) [compound 21]
Isolated gallbladder
  IC50: 2900 nM
CCK-receptor
  IC50: 400 nM

## CCCCCN(CC(=O)OC(C)C)C(=O)C(CCC(=O)O)CS(=O)(=O)c1ccc2ccccc2c1 (stereo not shown) [compound 24]
CCK-receptor
  IC50: 44 nM

## CCCCCN(CC(=O)OC(C)(C)C)C(=O)C(CCC(=O)O)CS(=O)(=O)c1ccc2ccccc2c1 (stereo not shown) [compound 25]
Amylase secretion
  ED50: 8 mg/kg
CCK-receptor
  IC50: 49 nM

## CCCCCN(CC(=O)N(C)C)C(=O)C(CCC(=O)O)CS(=O)(=O)c1ccc2ccccc2c1 (stereo not shown) [compound 27]
CCK-receptor
  IC50: 2200 nM

## CCCCCN(CC(=O)N(CC)CC)C(=O)C(CCC(=O)O)CS(=O)(=O)c1ccc2ccccc2c1 (stereo not shown) [compound 28]
CCK-receptor
  IC50: 210 nM

## CCCCCN(CC(=O)N(C(C)C)C(C)C)C(=O)C(CCC(=O)O)CS(=O)(=O)c1ccc2ccccc2c1 (stereo not shown) [compound 29]
CCK-receptor
  IC50: 2300 nM

## CCCCCN(CC(=O)NC(C)C)C(=O)C(CCC(=O)O)CS(=O)(=O)c1ccc2ccccc2c1 (stereo not shown) [compound 30]
CCK-receptor
  IC50: 4100 nM

## CCCCCN(CC(=O)NC1CCCCC1)C(=O)C(CCC(=O)O)CS(=O)(=O)c1ccc2ccccc2c1 (stereo not shown) [compound 31]
CCK-receptor
  IC50: 2000 nM

## CCCCCN(CCCCC)C(=O)C(CC(=O)O)CS(=O)(=O)c1ccc2ccccc2c1 (stereo not shown) [compound 32]
CCK-receptor
  IC50: 290 nM

## CCCCCN(CC(=O)O)C(=O)C(CCC(=O)O)CS(=O)(=O)c1ccc2ccccc2c1 (stereo not shown) [compound 33]
CCK-receptor
  IC50: 3400 nM

## CC(=O)OCCN(CCOC(C)=O)C(=O)C(CCC(=O)OCc1ccccc1)CS(=O)(=O)c1ccc2ccccc2c1 (stereo not shown) [compound 35]
CCK-receptor
  IC50: 4000 nM

## CCOC(=O)CN(CC(=O)OCC)C(=O)C(CCC(=O)OCc1ccccc1)CS(=O)(=O)c1ccc2ccccc2c1 (stereo not shown) [compound 36, benzyl 4-[N,N-bis(ethoxycarbonylmethyl)carbamoyl]-5-(2-naphthylsulfonyl)pentanoate]
CCK-receptor
  IC50: 6500 nM

## C=CCOCCN(CCOCC=C)C(=O)C(CCC(=O)OC)CS(=O)(=O)c1ccc2ccccc2c1 (stereo not shown) [compound 37]
CCK-receptor
  IC50: 3100 nM

## CCOC(=O)CN(CCCOC)C(=O)C(CCC(=O)OCc1ccccc1)CS(=O)(=O)c1ccc2ccccc2c1 (stereo not shown) [compound 38]
CCK-receptor
  IC50: 110 nM

## CCOC(=O)CN(CC(=O)OCC)C(=O)C(CCC(=O)O)CS(=O)(=O)c1ccc2ccccc2c1 (stereo not shown) [compound 40, 4-[N,N-Bis(ethoxycarbonylmethyl)carbamoyl]-5-(2-naphthylsulfonyl)pentanoic acid]
CCK-receptor
  IC50: 2100 nM

## C=CCOCCN(CCOCC=C)C(=O)C(CCC(=O)O)CS(=O)(=O)c1ccc2ccccc2c1 (stereo not shown) [compound 41]
CCK-receptor
  IC50: 1400 nM

## CCCCCN(CCOC(=O)C(C)(C)C)C(=O)C(CCC(=O)O)CS(=O)(=O)c1ccc2ccccc2c1 (stereo not shown) [compound 52]
CCK-receptor
  IC50: 190 nM

## CCCCCN(CCCN1CCCC1=O)C(=O)C(CCC(=O)O)CS(=O)(=O)c1ccc2ccccc2c1 (stereo not shown) [compound 53]
CCK-receptor
  IC50: 220 nM

## CCCCCN(CC(=O)N1CCOCC1)C(=O)C(CCC(=O)O)CS(=O)(=O)c1ccc2ccccc2c1 (stereo not shown) [compound 54]
CCK-receptor
  IC50: 610 nM

## CCCCCN(CC(=O)N1CCCC1)C(=O)C(CCC(=O)O)CS(=O)(=O)c1ccc2ccccc2c1 (stereo not shown) [compound 55]
CCK-receptor
  IC50: 900 nM
